Reference: US20150320773A1, “TREATMENT OF INFLAMMATION” (Vascular Biogenics Ltd., priority 2011, published 2015)

Experiments:
TLR5 [1] = target: TLR5 (Mus musculus, UniProt Q9JLF7); details: mouse BMDCs; flagellin; 1.7, 8.5 or 17 μM
TLR9 = TLR9 (Mus musculus, UniProt Q9EQU3); details: mouse BMDCs; CpG; 1.7, 8.5 or 17 μM
IL-1 receptor (IL-1R) = IL-1 receptor (IL-1R) (Mus musculus, UniProt P13504); details: mouse BMDCs; 1.7, 8.5 or 17 μM
TLR4 = TLR4 (Homo sapiens, UniProt O00206); details: human monocytes; LPS; 1.7, 8.5 or 17 μM
TLR5 [2] = target: TLR5 (Homo sapiens, UniProt O60602); details: human monocytes; flagellin; 1.7, 8.5 or 17 μM
TLR2 = TLR2 (Homo sapiens, UniProt O60603); details: human monocytes; BO-VB201; anti-human TLR2 blocking antibody
Method: Human monocytes were incubated for 15 min with anti-human TLR2 blocking antibody. […] Streptavidin-APC (1:200) was used to detect binding.

THP-1 cells [3] = assay: Trans-well chemotaxis assay of THP-1 cells; assay type: cell-based, human
Method: For chemo-attraction of monocytes, RANTES (100 ng/ml), MIP-1α (50 ng/ml) or MCP-1 (50 ng/ml) were dissolved in 0.5% fetal bovine serum(FBS)/RPMI-1640 medium and placed at the lower chamber of QCM™ 24-well migration assay plate (Corning-Costar; 5 μm pores). For chemo-attraction of CD4+ cells, 0.5% FBS/RPMI-1640 solution containing RANTES (100 ng/ml) and SDF-1α (50 ng/ml) was used, using the same plate setting. Migration assay was conducted by seeding 300,000 treated cells in the upper chamber, followed by incubation of 3-4 hours. Subsequently, the number of cells which migrated to the medium in the lower compartment was determined by FACS.
Data are mean f SD from 4 experiments in triplicates, normalized to untreated cells. **, p<0.001.

human monocytes = assay: Cell viability assay (MTS) of human monocytes; assay type: cell-based; details: 16 hours, doses of 1-10 j±g/ml
CCR2B = CCR2B (Homo sapiens, UniProt P41597); details: escalating doses
Method: (§1) Analyses were performed by Millipore GPCR Profiler Service, by measuring intracellular calcium signal in real time using FLIPR^TETRA device. […] Antagonist percentage inhibition was referenced to EC80 control wells for each tested GPCR.

CCR5 = CCR5 (Homo sapiens, UniProt P51681); details: escalating doses
Method: as §1

granulocytes = assay: Phagocytosis assay (whole blood), granulocytes; assay type: cell-based, human; details: VB-201 doses of 5 or 10 µg/ml
Method: Phagocytosis assays were conducted using pHrodo™ Phagocytosis Particle Labeling Kit (Invitrogen) according to the manufacturer protocol. […] Then, pHrodo dye-labeled E. coli bacteria were mixed with the treated blood samples, in 20:1 ratio of pHrodo™ particles to phagocytosing cells and incubated for additional 15 minutes. Each sample was analyzed both at 4° C. (no phagocytosis, negative control) and 37° C. Following incubation, red blood cells were removed by lysis and the samples were washed 3 times with wash buffer. For gating on specific subpopulations, cells were labeled with anti-CD14-FITC (monocytes and granulocytes marker, BD Biosciences) and anti-CD66b-PerCP/Cy5.5 (granulocytes marker, BioLegend) antibodies. pHrodo fluorescence intensity was analyzed by FACS.
To this end, a phagocytosis assay was performed on whole blood from healthy donors, and the capacity of leukocyte subsets to phagocytose PE-labeled E. Coli particles was tested in presence or absence of VB-201. As a negative control, we used blood without bacterial particles, while a positive control included blood and labeled-bacterial particles incubated at 37° C. Cells were then stained with CD14 and CD66b antibodies to differentiate between monocytes and granulocytes and were analyzed by FACS.

[4] = test system: MCF-7 human breast cancer cells; assay: Wound-healing 'scratch' assay; assay type: cell-based; details: data not shown
[5] = test system: G-coupled protein receprors (GPRC); assay: Selectivity: effect on activity of additional proteins
patients = assay: Vascular inflammation in patients (statin therapy); assay type: in vivo, human; details: in some instances
Method: In some examples according to any one of the embodiments of Methods 1a, 1b, 2, and 3 described herein, the vascular inflammation is measured using positron emission computed tomography (PET/CT) imaging quantifying 18-fluorodeoxyglucose (18-FDG) uptake as a target to background ratio (TBR), e.g., as described herein, or in Example 8 of WO2011/083465.

COX-1 = COX-1 (Homo sapiens, UniProt P23219); details: concentrations of up to 10 μM; data not shown
COX-2 = COX-2 (Homo sapiens, UniProt P35354); details: concentrations of up to 10 μM; data not shown
HMG-CoA reductase = HMG-CoA reductase (Homo sapiens, UniProt P04035); details: concentrations of up to 10 μM; data not shown
12-LO (12-lipoxygenase) = 12-LO (12-lipoxygenase) (Homo sapiens, UniProt P18054); details: concentrations of up to 10 μM; data not shown
TNFα receptor = details: concentrations of up to 17 μM; data not shown
[6] = test system: phosphorylation of Akt, MEK1/2, ERK1/2 and p38 in human monocytes; details: stimulation with MCP-1, MIP-1α or RANTES; shown in WO 2011/083469; cited from earlier work
CD4+ T-cells = assay: Chemotaxis assay of CD4+ T-cells; details: 5 μg/ml; RANTES (100 ng/ml) and SDF-1α (50 ng/ml)
Method: Human monocytes (CD14+ cells) and CD4+ T-cells were isolated from whole blood of healthy donors. Following PBMCs separation from whole blood using Ficoll-Paque and leucosep tubes (Greiner Bio-One), CD14+/CD4+ cells were separated using specific anti-CD14/anti-CD4 micro beads, respectively (Miltenyi Biotech). Purity of the isolated populations was validated using specific antibodies by FACS analysis. […] For chemo-attraction of monocytes, RANTES (100 ng/ml), MIP-1α (50 ng/ml) or MCP-1 (50 ng/ml) were dissolved in 0.5% fetal bovine serum(FBS)/RPMI-1640 medium and placed at the lower chamber of QCM™ 24-well migration assay plate (Corning-Costar; 5 μm pores). For chemo-attraction of CD4+ cells, 0.5% FBS/RPMI-1640 solution containing RANTES (100 ng/ml) and SDF-1α (50 ng/ml) was used, using the same plate setting. Migration assay was conducted by seeding 300,000 treated cells in the upper chamber, followed by incubation of 3-4 hours. Subsequently, the number of cells which migrated to the medium in the lower compartment was determined by FACS.

ApoE KO mice = assay: Atherosclerosis study in ApoE KO mice
Method: Dosing was performed once a day, for 8 weeks (n=1-12/group). […] Lesion area was calculated using a computerized analysis method (Image Pro Plus software, V. 4.5.1.29, Medical Cybernetics Corporation). Aorta lesion area was determined using the Image-Pro Plus software, which measured the staining area covered by Sudan IV stain adhering to the lesioned tissue. Lesion size in the aorta was measured and the percentage of lesioned area was calculated relative to the size of the entire aorta.
Immunostaining was performed on frozen sections which were fixed with cold acetone and blocked with 4% normal rabbit serum/PBS (Vector Lab). Following incubation with Rat anti-mouse CD68 (Serotec NCA1957; 1:250) and anti-Rat biotinylated antibody (Vector Lab AB-4001; 1:200), signal was developed using Vectastain ABC-Alkaline phosphatase kit and Vector Red Substrate (Vector Lab). Mayer's Hematoxylin was used for counterstaining.

THP-1 cells [7] = assay: AKT and ERK pathway activation in THP-1 cells, Western blot; details: 8.5 μM VB-201, 20 min
Method: THP-1 cells were incubated for 16 hrs in RPMI-1640 medium supplemented with 0.5% FBS and 1% Pen/Strep/Glutamine to reduce basal signaling readouts. […] Stimulation with 100 μM GTP-γ-s, an activator of G-proteins, was performed for 2, 5 or 15 minutes. Cells were harvested and analyzed by SDS-PAGE. […] Total ERK1/2 levels serve as loading control.
The THP1 or HEK293 cell lines were grown in medium supplemented with 0.5% FBS and 1% Pen/Strep/Glutamine. […] Cells were washed twice and harvested with lysis buffer and analyzed by SDS-PAGE. […] Alpha Tubulin levels serve as loading control.
THP-1 cells were incubated for 16 hrs in RPMI-1640 medium supplemented with 0.5% FBS and 1% Pen/Strep/Glutamine to reduce basal signaling readouts. […] Stimulation with 30 μg/ml of CRP, activator the CD32 and CD64 receptors, was performed for 2, 5 or 15 min. Cells were harvested and analyzed by SDS-PAGE. […] Total ERK1/2 levels serve as loading control.

Sequence of CCR2B (P41597 1-360 isoform P41597-2): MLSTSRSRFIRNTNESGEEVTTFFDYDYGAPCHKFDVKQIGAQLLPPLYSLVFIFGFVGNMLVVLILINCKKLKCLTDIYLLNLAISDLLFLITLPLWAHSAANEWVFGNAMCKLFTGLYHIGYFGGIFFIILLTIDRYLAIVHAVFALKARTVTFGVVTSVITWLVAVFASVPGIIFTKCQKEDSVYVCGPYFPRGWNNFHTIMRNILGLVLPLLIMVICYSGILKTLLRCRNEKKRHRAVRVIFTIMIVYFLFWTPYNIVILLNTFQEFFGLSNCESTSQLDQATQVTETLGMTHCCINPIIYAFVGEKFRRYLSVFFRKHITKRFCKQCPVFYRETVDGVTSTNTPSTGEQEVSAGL
Sequence of TLR5 (Homo sapiens, UniProt O60602) (O60602 21-858): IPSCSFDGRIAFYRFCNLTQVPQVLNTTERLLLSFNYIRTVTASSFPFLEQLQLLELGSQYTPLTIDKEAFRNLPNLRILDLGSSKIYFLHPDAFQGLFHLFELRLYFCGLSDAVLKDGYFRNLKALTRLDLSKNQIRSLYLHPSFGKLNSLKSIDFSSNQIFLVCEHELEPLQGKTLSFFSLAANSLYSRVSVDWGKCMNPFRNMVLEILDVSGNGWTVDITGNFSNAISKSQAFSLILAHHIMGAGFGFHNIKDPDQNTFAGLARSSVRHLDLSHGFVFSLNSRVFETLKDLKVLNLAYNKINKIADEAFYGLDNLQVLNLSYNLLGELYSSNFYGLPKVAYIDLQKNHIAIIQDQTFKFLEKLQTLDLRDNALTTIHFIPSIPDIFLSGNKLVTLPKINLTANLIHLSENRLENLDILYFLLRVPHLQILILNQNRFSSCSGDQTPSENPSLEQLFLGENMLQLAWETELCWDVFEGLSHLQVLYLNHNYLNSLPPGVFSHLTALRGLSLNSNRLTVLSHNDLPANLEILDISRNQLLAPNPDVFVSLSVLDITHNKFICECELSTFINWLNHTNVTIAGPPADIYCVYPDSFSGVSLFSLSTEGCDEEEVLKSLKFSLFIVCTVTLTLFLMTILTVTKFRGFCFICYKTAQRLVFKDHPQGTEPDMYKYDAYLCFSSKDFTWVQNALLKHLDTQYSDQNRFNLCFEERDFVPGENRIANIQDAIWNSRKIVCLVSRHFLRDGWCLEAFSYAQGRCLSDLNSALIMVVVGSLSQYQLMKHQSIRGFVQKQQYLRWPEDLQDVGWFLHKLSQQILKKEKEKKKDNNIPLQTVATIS
Sequence of 12-LO (12-lipoxygenase) (P18054 whole entry, species assumed): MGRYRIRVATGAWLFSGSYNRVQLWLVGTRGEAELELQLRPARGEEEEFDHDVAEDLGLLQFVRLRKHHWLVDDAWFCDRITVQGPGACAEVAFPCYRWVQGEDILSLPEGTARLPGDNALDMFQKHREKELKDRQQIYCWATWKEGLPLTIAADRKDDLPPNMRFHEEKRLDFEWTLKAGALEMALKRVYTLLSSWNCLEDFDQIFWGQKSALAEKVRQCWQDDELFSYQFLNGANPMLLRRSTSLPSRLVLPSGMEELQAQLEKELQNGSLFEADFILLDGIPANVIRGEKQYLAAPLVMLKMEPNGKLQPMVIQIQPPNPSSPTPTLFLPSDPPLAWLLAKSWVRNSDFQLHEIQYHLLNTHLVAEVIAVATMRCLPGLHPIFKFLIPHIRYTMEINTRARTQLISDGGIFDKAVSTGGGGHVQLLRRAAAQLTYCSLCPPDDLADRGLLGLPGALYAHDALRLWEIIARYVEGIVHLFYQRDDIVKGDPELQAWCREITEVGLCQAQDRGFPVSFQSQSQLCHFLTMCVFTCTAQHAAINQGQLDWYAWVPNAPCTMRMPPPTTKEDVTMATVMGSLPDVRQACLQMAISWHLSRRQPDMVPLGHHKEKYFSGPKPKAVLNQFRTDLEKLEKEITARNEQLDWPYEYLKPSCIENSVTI
Sequence of TLR9 (Q9EQU3 26-1032): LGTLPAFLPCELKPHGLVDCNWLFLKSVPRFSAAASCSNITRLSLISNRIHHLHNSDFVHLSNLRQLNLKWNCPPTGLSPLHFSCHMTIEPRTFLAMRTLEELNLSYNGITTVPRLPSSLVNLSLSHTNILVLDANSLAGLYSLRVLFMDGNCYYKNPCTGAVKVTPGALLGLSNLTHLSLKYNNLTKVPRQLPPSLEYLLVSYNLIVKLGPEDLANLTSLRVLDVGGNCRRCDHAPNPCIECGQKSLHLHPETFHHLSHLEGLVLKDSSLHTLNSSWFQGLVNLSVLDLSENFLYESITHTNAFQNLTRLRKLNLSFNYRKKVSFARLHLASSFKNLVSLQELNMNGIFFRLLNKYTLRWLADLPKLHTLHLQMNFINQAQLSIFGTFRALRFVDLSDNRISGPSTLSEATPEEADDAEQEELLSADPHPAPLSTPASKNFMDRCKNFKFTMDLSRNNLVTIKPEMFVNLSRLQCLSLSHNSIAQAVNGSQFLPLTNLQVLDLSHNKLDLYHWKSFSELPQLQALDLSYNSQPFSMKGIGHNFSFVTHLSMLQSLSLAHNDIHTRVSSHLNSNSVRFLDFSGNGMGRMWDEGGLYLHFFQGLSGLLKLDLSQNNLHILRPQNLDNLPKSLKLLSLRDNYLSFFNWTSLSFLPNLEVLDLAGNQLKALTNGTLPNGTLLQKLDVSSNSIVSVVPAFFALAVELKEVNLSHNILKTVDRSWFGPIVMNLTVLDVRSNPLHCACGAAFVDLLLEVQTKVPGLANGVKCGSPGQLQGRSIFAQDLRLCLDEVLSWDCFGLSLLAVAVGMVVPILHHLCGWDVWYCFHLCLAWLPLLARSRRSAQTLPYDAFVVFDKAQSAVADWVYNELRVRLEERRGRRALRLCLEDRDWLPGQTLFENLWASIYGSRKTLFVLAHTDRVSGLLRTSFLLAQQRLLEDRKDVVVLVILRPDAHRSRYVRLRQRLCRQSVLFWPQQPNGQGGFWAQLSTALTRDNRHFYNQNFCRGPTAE
Sequence of COX-1 (P23219 24-599): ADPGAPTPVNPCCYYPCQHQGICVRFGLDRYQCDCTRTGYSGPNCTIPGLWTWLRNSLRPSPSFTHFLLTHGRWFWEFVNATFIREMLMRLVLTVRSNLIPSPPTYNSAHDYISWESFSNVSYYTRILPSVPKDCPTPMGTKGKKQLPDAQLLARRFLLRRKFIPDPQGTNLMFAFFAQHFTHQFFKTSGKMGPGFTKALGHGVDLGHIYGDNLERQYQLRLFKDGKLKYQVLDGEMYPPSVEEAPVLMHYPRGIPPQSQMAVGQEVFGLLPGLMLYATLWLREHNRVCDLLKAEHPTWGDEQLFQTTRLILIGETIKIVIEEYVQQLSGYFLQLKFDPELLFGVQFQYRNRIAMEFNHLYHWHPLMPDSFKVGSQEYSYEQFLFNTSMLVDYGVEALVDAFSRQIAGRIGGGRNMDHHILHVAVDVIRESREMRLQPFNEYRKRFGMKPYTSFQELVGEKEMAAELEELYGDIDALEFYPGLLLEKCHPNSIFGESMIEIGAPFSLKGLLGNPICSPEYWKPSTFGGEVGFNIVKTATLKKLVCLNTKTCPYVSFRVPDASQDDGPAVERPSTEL
Sequence of TLR5 (Mus musculus, UniProt Q9JLF7) (Q9JLF7 27-859): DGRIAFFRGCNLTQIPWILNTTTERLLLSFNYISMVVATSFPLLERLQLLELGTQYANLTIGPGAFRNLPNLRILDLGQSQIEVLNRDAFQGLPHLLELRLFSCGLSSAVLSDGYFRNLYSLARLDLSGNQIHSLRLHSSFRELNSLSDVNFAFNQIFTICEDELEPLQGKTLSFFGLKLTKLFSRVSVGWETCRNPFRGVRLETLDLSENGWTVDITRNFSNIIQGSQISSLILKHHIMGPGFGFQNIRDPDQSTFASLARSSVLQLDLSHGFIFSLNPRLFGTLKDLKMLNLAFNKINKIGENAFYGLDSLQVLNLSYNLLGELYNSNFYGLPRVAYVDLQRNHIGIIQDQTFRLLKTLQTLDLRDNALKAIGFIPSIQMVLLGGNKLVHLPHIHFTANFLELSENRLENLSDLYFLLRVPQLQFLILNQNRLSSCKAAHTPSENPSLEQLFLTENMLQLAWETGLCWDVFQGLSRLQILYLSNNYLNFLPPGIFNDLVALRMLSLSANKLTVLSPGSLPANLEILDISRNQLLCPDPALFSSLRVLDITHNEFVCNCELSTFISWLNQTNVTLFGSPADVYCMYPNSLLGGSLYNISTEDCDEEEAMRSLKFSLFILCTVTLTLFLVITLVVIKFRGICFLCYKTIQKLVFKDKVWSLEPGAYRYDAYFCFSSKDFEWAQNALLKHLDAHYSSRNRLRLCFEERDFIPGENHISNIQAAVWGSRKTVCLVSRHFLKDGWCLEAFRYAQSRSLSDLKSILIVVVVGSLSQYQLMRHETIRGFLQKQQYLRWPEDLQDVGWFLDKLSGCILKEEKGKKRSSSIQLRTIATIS
Sequence of COX-2 (P35354 18-604): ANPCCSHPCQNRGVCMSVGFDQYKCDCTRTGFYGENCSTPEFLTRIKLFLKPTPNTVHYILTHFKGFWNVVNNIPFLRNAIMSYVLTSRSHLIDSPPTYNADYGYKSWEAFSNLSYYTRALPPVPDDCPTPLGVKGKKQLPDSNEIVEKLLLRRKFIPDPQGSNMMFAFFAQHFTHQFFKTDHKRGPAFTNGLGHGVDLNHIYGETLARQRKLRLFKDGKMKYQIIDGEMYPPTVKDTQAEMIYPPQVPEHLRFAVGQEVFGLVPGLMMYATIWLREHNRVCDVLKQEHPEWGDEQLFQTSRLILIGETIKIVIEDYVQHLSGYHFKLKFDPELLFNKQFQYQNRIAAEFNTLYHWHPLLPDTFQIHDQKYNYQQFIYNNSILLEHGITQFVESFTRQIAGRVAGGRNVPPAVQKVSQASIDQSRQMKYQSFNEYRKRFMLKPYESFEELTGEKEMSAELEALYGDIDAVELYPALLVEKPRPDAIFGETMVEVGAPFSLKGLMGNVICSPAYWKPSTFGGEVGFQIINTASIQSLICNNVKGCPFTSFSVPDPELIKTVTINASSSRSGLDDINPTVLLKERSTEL

Structure (SMILES): CCCCCCCCCCCCCCCCOC[C@H](COP(=O)([O-])OCC[N+](C)(C)C)OCCCCC(=O)O [VB-201, (R)-1-hexadecyl-2-(4′-carboxyl)butyl-sn-glycero-3-phosphocholine]
- p38 phosphorylation following activation of TLR5 (TLR5 [1]): no apparent effect
- p38 phosphorylation following activation of TLR9 (TLR9): no apparent effect
- p38 phosphorylation following activation of IL-1 receptor (IL-1 receptor (IL-1R)): no apparent effect
- activation of p38, ERK1/2 and the NFκB pathway following activation of TLR4 (TLR4): inhibited activation of p38, ERK1/2 and the NFκB pathway in a dose-dependent manner
- activation of p38, ERK1/2 and the NFκB pathway following TLR5 activation (TLR5 [2]): no apparent effect
- binding to cell surface expressed TLR2 (TLR2): Binds Cell Surface Expressed TLR2
- effect of Wortmannin, Rapamycin and GW5074 on chemotaxis of THP-1 cells with added VB-201 (THP-1 cells [3]; VB-201 8.5 μM): further enhanced
- in vitro migration of THP-1 cells (THP-1 cells [3]; pretreatment 30 minutes, 2 or 5 μg/ml): significantly inhibited in vitro migration of THP-1 cells in a dose-dependent manner
- monocyte viability (human monocytes): no effect on monocyte viability
- antagonistic effect against CCR2B (CCR2B): did not induce an antagonistic effect
- antagonistic effect against CCR5 (CCR5): did not induce an antagonistic effect
- granulocyte phagocytosis (granulocytes): no VB-201 effect was seen
- cell migration in wound-healing scratch assay [4]: no effect on cell migration
- agonistic or antagonistic effect on G-coupled protein receprors (GPRC) [5]: no agonistic or antagonistic effect
- effect on vascular inflammation in patients undergoing statin therapy versus patients not being treated with statins (patients): slightly better
- inhibition of COX-1 (COX-1): No inhibition
- inhibition of COX-2 (COX-2): No inhibition
- inhibition of HMG-CoA reductase (HMG-CoA reductase): No inhibition
- inhibition of 12-LO (12-lipoxygenase) (12-LO (12-lipoxygenase)): No inhibition
- inhibition of TNFα receptor (TNFα receptor): No inhibition
- ERK1/2 phosphorylation and MEK1/2 phosphorylation [6]: inhibition by VB-201 of ERK1/2 phosphorylation and MEK1/2 phosphorylation
- CD4 cell chemotaxis (CD4+ T-cells): unable to find any inhibition
- plaque formation relative to the PBS control (ApoE KO mice; 1.5 mg/kg, daily oral gavage, 8 weeks): significantly reduced plaque formation
- fatty streaks (ApoE KO mice; daily oral gavage, 8 weeks, 0.15 or 1.5 mg/kg): markedly reduced
- macrophage accumulation in the aortic sinus lesion (anti-CD68) (ApoE KO mice; relative to controls): reduced
- phospho-AKT(Ser473) levels (THP-1 cells [7]; 30 μg/ml CRP): reduction in phospho-ERK1/2 and phospho-AKT(Ser473) levels
- phospho-ERK1/2 levels (THP-1 cells [7]; 30 μg/ml CRP): reduction in phospho-ERK1/2 and phospho-AKT(Ser473) levels
- phospho-AKT(Ser473) levels (THP-1 cells [7]; 100 μM GTP-γ-s): reduction in phospho-ERK1/2 and phospho-AKT (Ser473) levels
- phospho-ERK1/2 levels (THP-1 cells [7]; 100 μM GTP-γ-s): reduction in phospho-ERK1/2 and phospho-AKT (Ser473) levels
- EGF-induced ERK1/2 phosphorylation (THP-1 cells [7]; EGF 200 ng/ml): inhibition of ERK1/2 phosphorylation in the THP-1 monocytic cell line
